Columns and labels:
Format in all cases: functional
Settings in all cases: read-out: Activity
U-251 = assay: Cytotoxicity against human U-251 cells assessed as cell viability at 10 uM incubated for 48 hrs by sulforhodamine B assay relative to control
HCC 2998 = assay: Cytotoxicity against human HCC 2998 cells assessed as cell viability at 10 uM incubated for 48 hrs by sulforhodamine B assay relative to control
MOLT-4 = assay: Cytotoxicity against human MOLT-4 cells assessed as cell viability at 10 uM incubated for 48 hrs by sulforhodamine B assay relative to control
OVCAR-3 = assay: Cytotoxicity against human OVCAR-3 cells assessed as cell viability at 10 uM incubated for 48 hrs by sulforhodamine B assay relative to control
HOP-62 = assay: Cytotoxicity against human HOP-62 cells assessed as cell viability at 10 uM incubated for 48 hrs by sulforhodamine B assay relative to control
HOP-92 = assay: Cytotoxicity against human HOP-92 cells assessed as cell viability at 10 uM incubated for 48 hrs by sulforhodamine B assay relative to control
NCI-H522 = assay: Cytotoxicity against human NCI-H522 cells assessed as cell viability at 10 uM incubated for 48 hrs by sulforhodamine B assay relative to control
COLO 205 = assay: Cytotoxicity against human COLO 205 cells assessed as cell viability at 10 uM incubated for 48 hrs by sulforhodamine B assay relative to control
HCT-116 = assay: Cytotoxicity against human HCT-116 cells assessed as cell viability at 10 uM incubated for 48 hrs by sulforhodamine B assay relative to control
OVCAR-8 = assay: Cytotoxicity against human OVCAR-8 cells assessed as cell viability at 10 uM incubated for 48 hrs by sulforhodamine B assay relative to control
CAKI-1 = assay: Cytotoxicity against human CAKI-1 cells assessed as cell viability at 10 uM incubated for 48 hrs by sulforhodamine B assay relative to control
SK-OV-3 = assay: Cytotoxicity against human SK-OV-3 cells assessed as cell viability at 10 uM incubated for 48 hrs by sulforhodamine B assay relative to control
EKVX = assay: Cytotoxicity against human EKVX cells assessed as cell viability at 10 uM incubated for 48 hrs by sulforhodamine B assay relative to control
786-0 = assay: Cytotoxicity against human 786-0 cells assessed as cell viability at 10 uM incubated for 48 hrs by sulforhodamine B assay relative to control
SNB-19 = assay: Cytotoxicity against human SNB-19 cells assessed as cell viability at 10 uM incubated for 48 hrs by sulforhodamine B assay relative to control
OVCAR-5 = assay: Cytotoxicity against human OVCAR-5 cells assessed as cell viability at 10 uM incubated for 48 hrs by sulforhodamine B assay relative to control
SN12C = assay: Cytotoxicity against human SN12C cells assessed as cell viability at 10 uM incubated for 48 hrs by sulforhodamine B assay relative to control
UO-31 = assay: Cytotoxicity against human UO-31 cells assessed as cell viability at 10 uM incubated for 48 hrs by sulforhodamine B assay relative to control
SW-620 = assay: Cytotoxicity against human SW-620 cells assessed as cell viability at 10 uM incubated for 48 hrs by sulforhodamine B assay relative to control
SK-MEL-5 = assay: Cytotoxicity against human SK-MEL-5 cells assessed as cell viability at 10 uM incubated for 48 hrs by sulforhodamine B assay relative to control
UACC-62 = assay: Cytotoxicity against human UACC-62 cells assessed as cell viability at 10 uM incubated for 48 hrs by sulforhodamine B assay relative to control
M14 = assay: Cytotoxicity against human M14 cells assessed as cell viability at 10 uM incubated for 48 hrs by sulforhodamine B assay relative to control
K562 = assay: Cytotoxicity against human K562 cells assessed as cell viability at 10 uM incubated for 48 hrs by sulforhodamine B assay relative to control
UACC-257 = assay: Cytotoxicity against human UACC-257 cells assessed as cell viability at 10 uM incubated for 48 hrs by sulforhodamine B assay relative to control
CCRF-CEM = assay: Cytotoxicity against human CCRF-CEM cells assessed as cell viability at 10 uM incubated for 48 hrs by sulforhodamine B assay relative to control
ACHN = assay: Cytotoxicity against human ACHN cells assessed as cell viability at 10 uM incubated for 48 hrs by sulforhodamine B assay relative to control
BT-549 = assay: Cytotoxicity against human BT-549 cells assessed as cell viability at 10 uM incubated for 48 hrs by sulforhodamine B assay relative to control
TK-10 = assay: Cytotoxicity against human TK-10 cells assessed as cell viability at 10 uM incubated for 48 hrs by sulforhodamine B assay relative to control
NCI-H23 = assay: Cytotoxicity against human NCI-H23 cells assessed as cell viability at 10 uM incubated for 48 hrs by sulforhodamine B assay relative to control
SF-268 = assay: Cytotoxicity against human SF-268 cells assessed as cell viability at 10 uM incubated for 48 hrs by sulforhodamine B assay relative to control
MDA-MB-435 = assay: Cytotoxicity against human MDA-MB-435 cells assessed as cell viability at 10 uM incubated for 48 hrs by sulforhodamine B assay relative to control
PC-3 = assay: Cytotoxicity against human PC-3 cells assessed as cell viability at 10 uM incubated for 48 hrs by sulforhodamine B assay relative to control
SF-295 = assay: Cytotoxicity against human SF-295 cells assessed as cell viability at 10 uM incubated for 48 hrs by sulforhodamine B assay relative to control
OVCAR-4 = assay: Cytotoxicity against human OVCAR-4 cells assessed as cell viability at 10 uM incubated for 48 hrs by sulforhodamine B assay relative to control
SNB-75 = assay: Cytotoxicity against human SNB-75 cells assessed as cell viability at 10 uM incubated for 48 hrs by sulforhodamine B assay relative to control
RPMI-8226 = assay: Cytotoxicity against human RPMI-8226 cells assessed as cell viability at 10 uM incubated for 48 hrs by sulforhodamine B assay relative to control
KM12 = assay: Cytotoxicity against human KM12 cells assessed as cell viability at 10 uM incubated for 48 hrs by sulforhodamine B assay relative to control
NCI-H322M = assay: Cytotoxicity against human NCI-H322M cells assessed as cell viability at 10 uM incubated for 48 hrs by sulforhodamine B assay relative to control
Malme-3M = assay: Cytotoxicity against human Malme-3M cells assessed as cell viability at 10 uM incubated for 48 hrs by sulforhodamine B assay relative to control
IGROV-1 = assay: Cytotoxicity against human IGROV-1 cells assessed as cell viability at 10 uM incubated for 48 hrs by sulforhodamine B assay relative to control
NCI/ADR-RES = assay: Cytotoxicity against human NCI/ADR-RES cells assessed as cell viability at 10 uM incubated for 48 hrs by sulforhodamine B assay relative to control

SMILES: O=C(NCCCNc1nccc(-c2c(-c3cccc(F)c3)nc3sccn23)n1)c1ccc(F)cc1
- viability at 10 µM (U-251): 90.6%
- viability at 10 µM (HCC 2998): 112%
- viability at 10 µM (MOLT-4): 44.5%
- viability at 10 µM (OVCAR-3): 74.1%
- viability at 10 µM (HOP-62): 119%
- viability at 10 µM (HOP-92): 111%
- viability at 10 µM (NCI-H522): 85.2%
- viability at 10 µM (COLO 205): 64.7%
- viability at 10 µM (HCT-116): 62.5%
- viability at 10 µM (OVCAR-8): 68.4%
- viability at 10 µM (CAKI-1): 73%
- viability at 10 µM (SK-OV-3): 66.3%
- viability at 10 µM (EKVX): 82%
- viability at 10 µM (786-0): 62.5%
- viability at 10 µM (SNB-19): 89%
- viability at 10 µM (OVCAR-5): 141%
- viability at 10 µM (SN12C): 75.8%
- viability at 10 µM (UO-31): 36.9%
- viability at 10 µM (SW-620): 115%
- viability at 10 µM (SK-MEL-5): 67.8%
- viability at 10 µM (UACC-62): 67.8%
- viability at 10 µM (M14): 85.3%
- viability at 10 µM (K562): 75.7%
- viability at 10 µM (UACC-257): 116%
- viability at 10 µM (CCRF-CEM): 75.9%
- viability at 10 µM (ACHN): 74.9%
- viability at 10 µM (BT-549): 85.2%
- viability at 10 µM (TK-10): 95.9%
- viability at 10 µM (NCI-H23): 105%
- viability at 10 µM (SF-268): 71%
- viability at 10 µM (MDA-MB-435): 72.6%
- viability at 10 µM (PC-3): 76.2%
- viability at 10 µM (SF-295): 97.2%
- viability at 10 µM (OVCAR-4): 81.6%
- viability at 10 µM (SNB-75): 83.9%
- viability at 10 µM (RPMI-8226): 87.2%
- viability at 10 µM (KM12): 89%
- viability at 10 µM (NCI-H322M): 96.3%
- viability at 10 µM (Malme-3M): 140%
- viability at 10 µM (IGROV-1): 49.4%
- viability at 10 µM (NCI/ADR-RES): 78.8%

SMILES: O=S(=O)(NCCNc1nccc(-c2c(-c3cccc(F)c3)nc3sccn23)n1)c1ccc(C(F)(F)F)cc1
- viability at 10 µM (U-251): 89.8%
- viability at 10 µM (HCC 2998): 111%
- viability at 10 µM (MOLT-4): 57.5%
- viability at 10 µM (OVCAR-3): 92.4%
- viability at 10 µM (HOP-62): 102%
- viability at 10 µM (HOP-92): 64%
- viability at 10 µM (NCI-H522): 85%
- viability at 10 µM (COLO 205): 68.3%
- viability at 10 µM (HCT-116): 67.8%
- viability at 10 µM (OVCAR-8): 84.1%
- viability at 10 µM (CAKI-1): 70.6%
- viability at 10 µM (SK-OV-3): 71.8%
- viability at 10 µM (EKVX): 86.5%
- viability at 10 µM (786-0): 82.1%
- viability at 10 µM (SNB-19): 94.8%
- viability at 10 µM (OVCAR-5): 122%
- viability at 10 µM (SN12C): 89.7%
- viability at 10 µM (UO-31): 51.7%
- viability at 10 µM (SW-620): 110%
- viability at 10 µM (SK-MEL-5): 84%
- viability at 10 µM (UACC-62): 73.3%
- viability at 10 µM (M14): 91.4%
- viability at 10 µM (K562): 73.1%
- viability at 10 µM (UACC-257): 109%
- viability at 10 µM (CCRF-CEM): 80.6%
- viability at 10 µM (ACHN): 82.2%
- viability at 10 µM (BT-549): 79.3%
- viability at 10 µM (TK-10): 98.2%
- viability at 10 µM (NCI-H23): 86.8%
- viability at 10 µM (SF-268): 77.8%
- viability at 10 µM (MDA-MB-435): 71.2%
- viability at 10 µM (PC-3): 57%
- viability at 10 µM (SF-295): 107%
- viability at 10 µM (OVCAR-4): 85.4%
- viability at 10 µM (SNB-75): 85%
- viability at 10 µM (RPMI-8226): 83.8%
- viability at 10 µM (KM12): 80.6%
- viability at 10 µM (NCI-H322M): 96.5%
- viability at 10 µM (Malme-3M): 115%
- viability at 10 µM (IGROV-1): 56.6%
- viability at 10 µM (NCI/ADR-RES): 88.8%

Reference: ChEMBL document CHEMBL4665642, “Anticancer profile of newly synthesized BRAF inhibitors possess 5-(pyrimidin-4-yl)imidazo[2,1-b]thiazole scaffold” (Bioorg Med Chem, 2019)
